US20250019368A1, “COMPOUND AND PRODUCTION METHOD THEREOF, POLYMERIZABLE COMPOSITION, RESIN COMPOSITION, POLYMER, CURED SUBSTANCE, AND LAMINATE” (FUJIFILM Corporation, priority 2022, published 2025)

Key:
Type in all cases: physicochemical
[1] = Solubility in ethyl acetate, visual check for undissolved residue; details: 20.0 mg in 2 mL ethyl acetate, stirred at 40° C. for 10 minutes; no residue means solubility 1% by mass or more
Description: The solubility of each compound of Examples 1 to 3 and Comparative Examples 1 to 3 in an organic solvent was measured according to the following procedure.
20.0 mg of the compound was weighed and placed in a container, 2 mL of ethyl acetate was added thereto, and the mixture was stirred at 40° C. for 10 minutes. After the stirring, the presence or absence of undissolved residue of the compound was visually observed. The fact that no undissolved residue of the compound was observed means that the solubility of the compound was 1% by mass or more.

[2] = Solubility in the organic solvents of the polymerizable composition; details: solvent (1) propylene glycol monomethyl ether acetate and solvent (2) cyclohexanone, polymerizable composition P4
Text: A polymerizable composition P4 was obtained in the same manner as in the preparation of the polymerizable composition P1, except that, in the preparation of the polymerizable composition P1, the “exemplary compound 1-13” was changed to the “comparative compound R-3”.
A cured film E4 was obtained in the same manner as in the production of the cured film E1, except that, in the production of the cured film E1, the “polymerizable composition P1” was changed to the “polymerizable composition P4”. However, since the “comparative compound R-3” had extremely low solubility in the organic solvent [that is, the solvent (1) and the solvent (2)], the obtained photocured film D4 and cured film E4 were not films that could be evaluated for the spectral characteristics, so that the following evaluation tests were not performed.

[3] = Absorption spectrum of the compound in chloroform solution (spectral characteristics); details: 5×10^−6 mol/L, 1 cm cell; for ε (molar absorption coefficient): at λmax
Description: An absorption spectrum of each of the compounds of Examples 1 to 3 and Comparative Examples 1 to 3 was measured according to the following procedure, and the maximal absorption wavelength ([…]), the molar absorption coefficient ([…]), and the width of the absorption spectrum at an absorbance corresponding to ½ of the maximum absorbance (that is, the half-width) were obtained.
Using chloroform as a solvent, a solution in which the compound was dissolved was prepared such that the concentration of the compound in the chloroform was 5×10^−6 mol/L (liter; the same applies hereinafter). Each prepared solution was put into a 1 cm cell, and an absorption spectrum was measured using a spectrophotometer [product name: U-4100, manufactured by Hitachi, Ltd.] as a measurement device.

| Solubility in ethyl acetate (presence or absence of undissolved residue) [1] | Solubility in the organic solvent [2] | Half-width (width of absorption spectrum at ½ of maximum absorbance) [3] [nm] | λmax (maximal absorption wavelength) [3] [nm] | ε (molar absorption coefficient) [3] | Structure (SMILES) |
| --- | --- | --- | --- | --- | --- |
| completely dissolved |  | 25 | 556 | 185,000 L/(mol · cm) | C=C(C)C(=O)OCCOC(=O)C1=C(C)/C(=C2\C(=O)C(c3[nH]c(C)c(CC)c3C)=C2O)N=C1C [Exemplary compound 1-13] |
| not completely dissolved |  | 27 | 667 | 363,000 L/(mol · cm) | C=C(C)C(=O)OCCN(CCOC(=O)C(=C)C)c1ccc(C2=C([O-])/C(=C3\C=CC(=[N+](CCOC(=O)C(=C)C)CCOC(=O)C(=C)C)C=C3NC(C)=O)C2=O)c(NC(C)=O)c1 [R-2] |

The remaining lines, values behind:

| Structure (SMILES) | Solubility in ethyl acetate (presence or absence of undissolved residue) [1] | Solubility in the organic solvent [2] | Half-width (width of absorption spectrum at ½ of maximum absorbance) [3] [nm] | λmax (maximal absorption wavelength) [3] [nm] | ε (molar absorption coefficient) [3] |
| --- | --- | --- | --- | --- | --- |
| CCN(CC)c1ccc(C2=C([O-])/C(=C3\C=CC(=[N+](CC)CC)C=C3NC(C)=O)C2=O)c(NC(C)=O)c1 [R-3] | not completely dissolved | extremely low | 27 | 676 | 356,000 L/(mol · cm) |
| C=Cc1ccc(Cn2c(C)c(CC)c(C)c2C2=C([O-])/C(=C3/C(C)=C(CC)C(C)=[N+]3Cc3ccc(C=C)cc3)C2=O)cc1 [Exemplary compound 1-30] | completely dissolved |  | 29 | 591 | 158,000 L/(mol · cm) |
| CCC1=C(C)/C(=C2\C(=O)C(c3[nH]c(C)c(CC)c3C)=C2O)N=C1C [R-1] | not completely dissolved |  | 23 | 564 | 238,000 L/(mol · cm) |
